Results reported in US20250361248A1, “PROTAC COMPOUND WITH CYCLOPHILIN A DEGRADATION ACTIVITY, PREPARATION METHOD THEREFOR, AND USE THEREOF” (priority 2022, published 2025).

Legend:
[1] = test system: IBV-/Guangxi-Jiangzhou/1352/2018; test: IBV-induced pneumonia mouse model: lung index, lung pathology and pathological scores; set-up: species or system C57BL/6 mice; conditions: in vivo
[2] = test system: A549 cells; test: Effect on A549 cell activity by CCK-8 method; type: cell-based; conditions: 0 to 10^5 nM, 12 hours
Procedure: (§1) (1) A549 cells in the logarithmic phase were collected, the concentration of the cell suspension was adjusted, and 100 uL was added per well. The cells to be tested were plated to a density of 10^3-10^4 cells/well and incubated at 37° C. under 5% CO2 until the bottom of the wells was covered by a single layer of cells.
(2) Different concentrations of the compound of Formula (I) were added: 0, 10, 10^2, 10^3, 10^4, and 10^5 nM/well, with 3 replicate wells set, and incubated at 37° C. under 5% CO2 for 12 hours.
• (1) 10 μL CCK8 reagent was added to the above cells in each well and reacted for 2 h. • (2) The incubation was terminated, and the culture medium in the wells was carefully aspirated. • (3) The absorbance of each well was measured using a microplate reader with a wavelength of 450 nm. • (4) The absorbance ratio between the experimental group and the control group was calculated as follows: Cell viability=(Absorbance of the experimental group−Blank control)÷(Absorbance of the control group−Blank control)×100%.

[3] = biological target: T1, CypA (Homo sapiens, UniProt P62937); test: CypA degradation in A549 cells by Western Blot; type: cell-based; conditions: A549 cell line, 12 hours
T1 construct: A549 cells in the logarithmic phase were collected; endogenous in cells; host or cells: A549
T1 sequence (P62937 whole entry): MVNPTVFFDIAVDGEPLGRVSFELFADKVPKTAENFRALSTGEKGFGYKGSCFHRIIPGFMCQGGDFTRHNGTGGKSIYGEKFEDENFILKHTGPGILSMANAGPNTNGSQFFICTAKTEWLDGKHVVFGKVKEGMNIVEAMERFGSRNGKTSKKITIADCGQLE
Procedure: as §1
(2) Different concentrations of the compound of Formula I were added: 0, 10, 10^2, 10^3, 10^4, and 10^5 nM/well, with 3 replicate wells set, and incubated at 37° C. under 5% CO2 for 12 hours.
(1) The treated cells were scraped off from the culture medium, suspended thoroughly, and then collected by centrifugation at 300 g for 5 minutes. After washing with PBS once, the PBS was discarded. […]
(3) The specific steps for Western Blot (WB) detection were as follows: • 1) An appropriate concentration of SDS-PAGE gel was prepared: the concentration of a separating gel of 10% and the concentration of a stacking gel of 5%. • 2) Sample preparation: protein samples were prepared according to experimental requirements, centrifuged, mixed well, and loaded into the loading wells of SDS-PAGE gel. The loading volume was adjusted appropriately according to the protein quantification results. • 3) Electrophoresis: the power was turned on, and the protein samples were run at 80 volts in the stacking gel. […]

[4] = test system: rheumatoid arthritis; test: Rat rheumatoid arthritis model (Freund complete adjuvant); type: in vivo, Lewise rats; conditions: 10 mg/kg tail vein three times/week
Procedure: The BCG vaccine was inactivated in a water bath at 80° C. for 1 h, ground thoroughly with incomplete Freund adjuvant, and mixed well to prepare 15 mg/mL Freund complete adjuvant (FCA). Lewise rats were divided into 4 groups: blank group (PBS), untreated group (UT), treatment group 1 (compound), and treatment group 2 (MTX (methotrexate)), with 5 rats in each group and a body weight of […]. Except for the PBS group, rats were intradermally injected with 0.1 mL of FCA in the right hind paw. On day 14 after injection, rats in treatment group 1 (compound) were injected with the compound (10 mg/kg of body weight, dissolved in 100 μL of PBS) through the tail vein three times/week: rats in treatment group 2 (MTX (methotrexate)) were intraperitoneally injected with methotrexate (1.2 mg/kg of body weight) three times/week.
The circumference of the metatarsophalangeal joint was measured. The circumference of the ankle joint of the left hind paw (on the secondary lesion side) of all rats was measured once before modeling, before administration, and 3 weeks after administration, respectively, and the percentage of joint swelling was calculated.
The joint index was determined by joint swelling score before administration (Day 0) and 3 weeks after administration. Scoring was carried out based on the redness and swelling degree of the ankle and toe joints of the front and rear limbs of rats and the affected joint index, as follows: 0 for normal; 1 for the redness and swelling of one joint; 2 for the redness and swelling of two or more joints; 3 for severe redness and swelling of the paw below the ankle joint; 4 for the redness and swelling of the entire paw including the ankle joint and inability to bear weight. The limbs were scored separately; and the cumulative sum of the scores was the joint index.
(1) On the day 21 of administration, rats were euthanized after blood collection. […]
(2) Joint synovial proliferation and the degree of sub-synovial inflammation were observed under a light microscope, and synovial cell proliferation was scored.

[5] = biological target: CypA (Mus musculus, UniProt P17742); type: in vivo, C57BL/6 mice; conditions: 10 mg/kg of body weight/day from 24 h after IBV infection, 7 days after infection
Chain of CypA (Mus musculus, UniProt P17742) (P17742 whole entry): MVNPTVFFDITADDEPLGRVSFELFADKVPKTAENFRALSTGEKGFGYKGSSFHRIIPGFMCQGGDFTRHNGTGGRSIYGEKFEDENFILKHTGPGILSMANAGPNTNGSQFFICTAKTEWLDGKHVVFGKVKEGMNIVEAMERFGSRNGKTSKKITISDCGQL

[6] = test system: A549 cells; test: Migration and infiltration of lung cancer cells, Transwell chambers; type: cell-based
Procedure: as §1, with “10^3 to 10^4” for “10^3-10^4”
(2) Different concentrations of the compound represented by Formula I were added: 0, 10, 10^2, 10^3, 10^4, and 10^5 nM/well, with 3 replicate wells set, and incubated at 37° C. under 5% CO2 for 12 hours.
The upper chamber of a 24-well cell culture insert ([…] pore size) was coated (no migration) or (invasive) with a matrix (1 mg/mL) and dried at 37° C. for 30 min.
(3) A549/WT and A549/CypA-cells were trypsinized, washed, and suspended in serum-free DMEM after treatment with 20 ng/ml TGF-β for 48 h.
(1) DMEM containing 10% fetal bovine serum was added to the lower chamber per approximately 5×10^4 cells inserted in the upper chamber.
(2) After incubation for 6 h (migration) or 24 h (invasion), non-migrating or […] cells residing on the upper part of the insert membrane were removed with a cotton swab.
(3) The cells that migrated to the underside of the membrane were fixed and stained with 2% crystal violet in ethanol.
(4) The stained cells were observed and counted under a Japan Olympus CKX41 microscope.

[7] = test system: IL-1β, IL-6, TNF-α, and IFN-γ; set-up: species or system C57BL/6 mice; conditions: mouse, in vivo, 10 mg/kg/day

With `Cc1ncsc1-c1ccc(CNC(=O)[C@@H]2C[C@@H](O[Si](C)(C)C(C)(C)C)CN2C(=O)[C@@H](NC(=O)COCCCCOCCCCOc2cccc(O)c2C(=O)NC(=O)NC2CCCCC2)C(C)(C)C)cc1` [Formula I] the “lung injury (lung index, pathology, pathological scores)” value [1] was “significantly alleviate lung injury”, the cell viability [2] was “above 80%” and the DC50 ([3]; WB grayscale analysis, read-out: half-degradation concentration on CypA) was less than 100 nM. The “degradation effect on CypA protein” value ([3]; WB, 0 to 10^5 nM) was “could be clearly observed”, the “joint index of the ankle joint” value ([4]; 3 weeks after administration) was “reduce the joint index” and the joint swelling ([4]; 3 weeks after administration) was “significantly relieve joint swelling”. The “inflammation of the ankle joint (ankle pathological scores, HE)” value ([4]; day 21 of administration) was “alleviate the inflammation”, the “expression of CypA in mouse lung tissue” value [5] was “significantly reduce” and the “infiltration of lung cancer cells” value ([6]; A549, Transwell with matrix, 24 h) was “significantly reduce”. For the same molecule, the “migration of lung cancer cells” value ([6]; A549, Transwell, 6 h) was “significantly reduce”, the “expression of IFN-γ in the lung tissue” value [7] was “significantly reduce” and the “expression of IL-1β in the lung tissue” value [7] was “significantly reduce”. For the same molecule, the “expression of IL-6 in the lung tissue” value [7] was “significantly reduce” and the “expression of TNF-α in the lung tissue” value [7] was “significantly reduce”.
